Assays:
[1] = Largest Soluble Hydrocarbon (LSH); type: physicochemical; conditions: test material to hydrocarbon ratio approximately 1:1 to 1:2 by weight, no haze to the naked eye
Description: Largest Soluble Hydrocarbon (LSH): The LSH of each hydrofluorothioether and competitive example was determined by mixing the compound with hydrocarbons of varying molecular weight (CnH2n+2, where n=9 to 24) in a test material to hydrocarbon ratio of approximately 1:1 to 1:2 by weight at room temperature (23° C.) and at 50° C. […] A larger value of n is interpreted herein to indicate a greater ability of the hydrofluorothioether to clean hydrocarbons.
Table 2 summarizes results of Largest Soluble Hydrocarbon (LSH) testing of Examples 1-3 and Comparative Examples CE1-CE5.

[2] = Atmospheric lifetime from relative rate studies with hydroxyl radicals; type: physicochemical; conditions: rate of reaction with hydroxyl radicals relative to CH3Cl reference
Description: Atmospheric Lifetime and Global Warming Potential (GWP): The atmospheric lifetime of each test material was determined from relative rate studies utilizing chloromethane (CH3Cl) as a reference compound. The pseudo-first order reaction rates of the reference compound and the test compound with hydroxyl radicals (·OH) was determined in a laboratory chamber system. The atmospheric lifetime of the reference compound is documented in the literature. Based on this value and the pseudo-first order rates measured in the chamber experiments, the atmospheric lifetime for each specimen was calculated from the reaction rates for the test compound relative to the reference compounds and the reported lifetime of the reference compounds as shown below:
[formula] where τx is the atmospheric lifetime of test material, τr is the atmospheric lifetime of the reference compound, and kx and kr are the rate constants for the reaction of hydroxyl radical with test material and the reference compound, respectively. The concentrations of gases in the test chamber were quantified by Fourier transform infrared spectroscopy (FTIR). The measured atmospheric lifetime value of each fluid was subsequently used for the GWP calculation.

rats = assay: Repeat dose inhalation toxicity in rats; type: in vivo; conditions: 3 male rats, 750 ppm, 6-hour/day, five day repeated exposure
Description: Toxicity: The repeat dose inhalation toxicity in rats was determined by a five day repeated exposure of 3 male rats to 750 ppm of the test compound for 6 hours per day.
The repeat dose inhalation toxicity in rats was determined by a five day repeated exposure of 3 male rats to 750 ppm (6-hour/day) of Example 2.

Structure (SMILES)	LSH (n in CnH2n+2) ([1]; 23° C.)	LSH (n in CnH2n+2) ([1]; 50° C.)	Atmospheric Lifetime [2]	clinical signs of toxicity, body weights, organ weights (rats)	histopathological effects in respiratory tract, liver, kidneys (rats)
COC(F)(F)C(F)(F)C(F)(F)C(F)(F)F [CE1, n-C4F9—O—CH3]	9	9			
COC(F)(F)C(F)(F)C(F)(F)F [CE2, CF3(CF2)2—O—CH3]	10	10	5.0 years		
FC(F)(F)CC(F)(F)CCl [CE5]	14	17			
CSC(F)(F)C(F)(F)C(F)(F)C(F)(F)F [Example 1, n-C4F9—S—CH3]	18	21			
CSC(F)(C(F)(F)F)C(F)(F)F [Example 2, perfluoroisopropyl methyl thioether]	18	>23	0.01 years	no adverse clinical signs of toxicity, changes in body weights, or organ weights (lungs, liver, and kidneys)	No adverse histopathological effects were observed in the respiratory tract, liver, or kidneys
